From patent publication US12594267B2, “Capsid inhibitors for the treatment of HIV” (Gilead Sciences, Inc., priority 2018, dated 2026)
Like-named read-outs stand apart in the source and are kept apart here.

Assays:
PI-resistant viruses = experiment: Cytopathic antiviral assay in MT-2 cells, PI-resistant viruses; assay type: cell-based, HIV-1; conditions: mutants resistant to PIs
Method: The antiviral activity of the compound of Formula (a) was tested against a panel of known HIV-1 mutants resistant to HIV PIs (ATV and DRV), NRTIs (TFV and FTC), NNRTIs (RPV and EFV) or INSTIs (RAL, EVG and DTG) using a cytopathic antiviral assay in MT-2 cells. The compound of Formula (Ia) was fully active against all tested mutants resistant to PIs (Table 11), NRTIs (Table 12), NNRTIs (Table 13) or INSTIs (Table 14).

[1] = Plasma PK after single oral administration in solution, cynomolgus monkey; assay type: in vivo
Method: (§1) An oral formulation containing a compound of Formula (Ia) in […], 20% propylene glycol, 45 PEG 300, and 30% 0.01 N HCl was prepared. The formulation was orally administered to male rat, dog, cynomolgus monkey, and rhesus monkey according to the doses shown in Table 8 below.

[2] = IV AUC used as reference for % F of capsules; set-up: species or system beagle dogs; conditions: beagle, dog, in vivo; IV at 1 mg/kg; reference for % F in Table 9; read-out: average IV AUC0-72h
[3] = Plasma PK after single oral administration in solution, summary over the four species; assay type: in vivo; conditions: male, Sprague-Dawley (rat), beagle (dog), range of species means (rat, dog, cynomolgus monkey, rhesus monkey)
Method: as §1

HIV-1 clinical isolates = experiment: Antiviral activity against HIV-1 clinical isolates in PHA-stimulated human PBMCs; assay type: cell-based
Method: The antiretroviral activity of the compound of Formula (Ia) was tested against a panel of 22 HIV-1 clinical isolates of HIV-1 and two HIV-2 isolates in freshly isolated, PHA-stimulated human peripheral blood mononuclear cells (PBMCs). The HIV-1 isolates included representative strains from subtypes A, B, C, D, E, F, G, N, O, AE, and AG. Following a 7-day infection, virus production was determined by measuring reverse transcriptase activity in cell-free culture supernatants.

[4] = male, plasma, single oral 4.0 mg/kg, solution in 5% ethanol/20% propylene glycol/45% PEG 300/30% 0.01 N HCl, mean ± SD, n=3

In the case of `CC(C)(C#Cc1ccc(-c2ccc(Cl)c3c(NS(C)(=O)=O)nn(CC(F)(F)F)c23)c([C@H](Cc2cc(F)cc(F)c2)NC(=O)Cn2nc(C(F)(F)F)c3c2C(F)(F)[C@@H]2C[C@H]32)n1)S(C)(=O)=O` [Formula (Ia), N—((S)-1-(3-(4-chloro-3-(methylsulfonamido)-1-(2,2,2-trifluoroethyl)-1H-indazol-7-yl)-6-(3-methyl-3-(methylsulfonyl)but-1-yn-1-yl)pyridin-2-yl)-2-(3,5-difluorophenyl)ethyl)-2-((3bS,4aR)-5,5-difluoro-3-(trifluoromethyl)-3b,4,4a,5-tetrahydro-1H-cyclopropa[3,4]cyclopenta[1,2-c]pyrazol-1-yl)acetamide], the “activity against all tested mutants, in words” value (PI-resistant viruses) is reported as “fully active”, the bioavailability ([1]; male, plasma, single oral 4.0 mg/kg, same solution, calculated based on AUC0-24h, mean ± SD, n=3, read-out: F (oral bioavailability)) is reported as 2.2 ± 0.6% and the Cmax [1, 4] is reported as 17.7 ± 5.6 µM. For the same compound, the Tmax [1, 4] was 8.7 ± 3.1 h, the AUC(0-t) ([1]; male, plasma, single oral 4.0 mg/kg, solution in 5% ethanol/20% propylene glycol/45% PEG 300/30% 0.01 N HCl, mean ± SD, n=3, read-out: AUC0-24h) was 298 ± 85 µM·h and the “F % (bioavailability), in words” value ([1]; oral solution) was “low”. For the same compound, the AUC(0-t) [2] was 13.5 µM·h, the Tmax [3] was 8.7 to 18.7 h and the EC50 (HIV-1 clinical isolates; Human immunodeficiency virus 1, BAL, PBMC, 168 h, read-out: EC50 in human PBMCs, HIV-1 subtype B isolate Ba-L, 7-day infection, RT activity readout, mean of triplicate) was 40 pM. It also gave an EC50 (HIV-1 clinical isolates; Human immunodeficiency virus 1, PBMC, 168 h, read-out: EC50 in human PBMCs, HIV-1 CRF01_AE isolate 90TH_CM235, 7-day infection, RT activity readout, mean of triplicate) of 40 pM, an EC50 (HIV-1 clinical isolates; Human immunodeficiency virus 1, PBMC, 168 h, read-out: EC50 in human PBMCs, HIV-1 CRF02_AG isolate 01CM0008BBY, 7-day infection, RT activity readout, mean of triplicate) of 50 pM and an EC50 (HIV-1 clinical isolates; Human immunodeficiency virus 1, PBMC, 168 h, read-out: EC50 in human PBMCs, HIV-1 CRF02_AG isolate 91DJ263, 7-day infection, RT activity readout, mean of triplicate) of 40 pM. It also gave an EC50 (HIV-1 clinical isolates; Human immunodeficiency virus 1, PBMC, 168 h, read-out: EC50 in human PBMCs, HIV-1 Group N isolate YBF30, 7-day infection, RT activity readout, mean of triplicate) of 20 pM, an EC50 (HIV-1 clinical isolates; Human immunodeficiency virus 1, PBMC, 168 h, read-out: EC50 in human PBMCs, HIV-1 Group O isolate BCF01, 7-day infection, RT activity readout, mean of triplicate) of 40 pM and an EC50 (HIV-1 clinical isolates; Human immunodeficiency virus 1, PBMC, 168 h, read-out: EC50 in human PBMCs, HIV-1 subtype A isolate 92UG031, 7-day infection, RT activity readout, mean of triplicate) of 40 pM. The EC50 (HIV-1 clinical isolates; Human immunodeficiency virus 1, PBMC, 168 h, read-out: EC50 in human PBMCs, HIV-1 subtype A isolate 92UG037, 7-day infection, RT activity readout, mean of triplicate) was 70 pM, the EC50 (HIV-1 clinical isolates; Human immunodeficiency virus 1, PBMC, 168 h, read-out: EC50 in human PBMCs, HIV-1 subtype B isolate 89BZ_167, 7-day infection, RT activity readout, mean of triplicate) was 80 pM and the EC50 (HIV-1 clinical isolates; Human immunodeficiency virus 1, PBMC, 168 h, read-out: EC50 in human PBMCs, HIV-1 subtype B isolate 90US_873, 7-day infection, RT activity readout, mean of triplicate) was 40 pM. It also gave an EC50 (HIV-1 clinical isolates; Human immunodeficiency virus 1, PBMC, 168 h, read-out: EC50 in human PBMCs, HIV-1 subtype B isolate 91US001, 7-day infection, RT activity readout, mean of triplicate) of 30 pM, an EC50 (HIV-1 clinical isolates; Human immunodeficiency virus 1, PBMC, 168 h, read-out: EC50 in human PBMCs, HIV-1 subtype B isolate 91US004, 7-day infection, RT activity readout, mean of triplicate) of 40 pM and an EC50 (HIV-1 clinical isolates; Human immunodeficiency virus 1, PBMC, 168 h, read-out: EC50 in human PBMCs, HIV-1 subtype B isolate 96TH_NP1538, 7-day infection, RT activity readout, mean of triplicate) of 50 pM. The EC50 (HIV-1 clinical isolates; Human immunodeficiency virus 1, PBMC, 168 h, read-out: EC50 in human PBMCs, HIV-1 subtype B isolate JR-CSF, 7-day infection, RT activity readout, mean of triplicate) was 40 pM, the EC50 (HIV-1 clinical isolates; Human immunodeficiency virus 1, PBMC, 168 h, read-out: EC50 in human PBMCs, HIV-1 subtype C isolate 92BR025, 7-day infection, RT activity readout, mean of triplicate) was 50 pM and the EC50 (HIV-1 clinical isolates; Human immunodeficiency virus 1, PBMC, 168 h, read-out: EC50 in human PBMCs, HIV-1 subtype C isolate 98US_MSC5016, 7-day infection, RT activity readout, mean of triplicate) was 100 pM. It also gave an EC50 (HIV-1 clinical isolates; Human immunodeficiency virus 1, PBMC, 168 h, read-out: EC50 in human PBMCs, HIV-1 subtype D isolate 92UG001, 7-day infection, RT activity readout, mean of triplicate) of 20 pM, an EC50 (HIV-1 clinical isolates; Human immunodeficiency virus 1, PBMC, 168 h, read-out: EC50 in human PBMCs, HIV-1 subtype D isolate 98UG_57128, 7-day infection, RT activity readout, mean of triplicate) of 30 pM and an EC50 (HIV-1 clinical isolates; Human immunodeficiency virus 1, PBMC, 168 h, read-out: EC50 in human PBMCs, HIV-1 subtype E isolate CMU02, 7-day infection, RT activity readout, mean of triplicate) of 50 pM. For the same compound, the EC50 (HIV-1 clinical isolates; Human immunodeficiency virus 1, PBMC, 168 h, read-out: EC50 in human PBMCs, HIV-1 subtype E isolate CMU08, 7-day infection, RT activity readout, mean of triplicate) was 50 pM, the EC50 (HIV-1 clinical isolates; Human immunodeficiency virus 1, PBMC, 168 h, read-out: EC50 in human PBMCs, HIV-1 subtype F isolate 93BR020, 7-day infection, RT activity readout, mean of triplicate) was 50 pM and the EC50 (HIV-1 clinical isolates; Human immunodeficiency virus 1, PBMC, 168 h, read-out: EC50 in human PBMCs, HIV-1 subtype G isolate JV1083, 7-day infection, RT activity readout, mean of triplicate) was 160 pM. For the same compound, the EC50 (HIV-1 clinical isolates; Human immunodeficiency virus 1, PBMC, read-out: HIV-1 EC50 Mean ± s.d., mean over the 22 HIV-1 clinical isolates, human PBMCs) was 50 ± 30 pM, the EC50 (HIV-1 clinical isolates; Human immunodeficiency virus 1, PBMC, read-out: HIV-1 EC50 Median, median over the 22 HIV-1 clinical isolates, human PBMCs) was 40 pM and the EC50 (HIV-1 clinical isolates; Human immunodeficiency virus 1, PBMC, read-out: HIV-1 EC50 Range, range over the 22 HIV-1 clinical isolates, human PBMCs) was 20 to 160 pM.
